Reference: article PMC10466336, “Chemical Probe for Imaging of Polo-like Kinase 4 and Centrioles” (JACS Au, 2023)

Key:
[1] = target: T1, Plk4 kinase domain (Homo sapiens, UniProt O00444); assay: Competition binding assay based on fluorescence polarization (tracer Alexa488-PEG-N-centrinone); details: for Kd: Alexa488-PEG-N-centrinone 1 nM, Plk4-KD 5 nM; for binding affinity lower (KD higher) than that of unmodified centrinone: ratio of Kd to Kd of centrinone
T1 construct: Plasmids encoding fragments of Plk4 kinase domain (2-275) with 6xHis-tag were cloned in pET system vectors; made in house; host or cells: E. coli BL21 gold (DE3)
T1 sequence (O00444 2-275): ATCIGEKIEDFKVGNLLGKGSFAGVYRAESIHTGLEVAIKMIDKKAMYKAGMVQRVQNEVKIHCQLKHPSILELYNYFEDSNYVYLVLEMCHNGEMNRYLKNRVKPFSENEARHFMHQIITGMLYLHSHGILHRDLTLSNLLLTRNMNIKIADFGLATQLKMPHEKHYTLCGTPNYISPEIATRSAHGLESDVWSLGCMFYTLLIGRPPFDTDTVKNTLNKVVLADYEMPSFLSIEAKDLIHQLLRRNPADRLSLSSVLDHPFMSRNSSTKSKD
From the text: Moreover, we substituted the basic acetyl-piperazine nitrogen in compounds (1 and 2a) with an acetyl-piperidine, to avoid probe protonation and accumulation in endolysosomal compartments (Figure S1A, B).[23] […] These probes were characterized first in vitro by measuring their fluorogenicity in the presence of the 6xHis-tagged Plk4 kinase domain (KD) (Table 1). […] Next, we measured the binding affinities of the probes to the Plk4 kinase domain via a competition binding assay based on fluorescence polarization. […]
1.3.6 Fluorescence Polarization assay & competition assay […]
plate (Greiner Bio-One). Upon mixture of protein and ligand, the plate was incubated for 30 min at room temperature followed by fluorescence polarization measurements by a plate reader (TECAN Spark® 20M) using 485 nm as excitation wavelength (bandwidth 20 nm) and 535 nm as emission wavelength (bandwidth 25 nm). The obtained fluorescence polarization values from each well were plotted against the concentration of the protein. The apparent Kd values were obtained by fitting the curve to the […]
FP = FP + FPmax ― FPmin (C + C + K ― (C + C + K )2 ― 4C C ) […]
protein should be around the Kd of the tracer to ensure that enough free protein that can bind the […]
competitor, and enough signal change coming from binding and unbinding of the tracer. The solution of the tracer and protein was titrated with increasing amounts of competitors, in our case SiR650- and […]
The mixture was then incubated for an hour at room temperature and the FP was then measured on a plate reader using the same conditions as mentioned before. From the obtained FP values, we have calculated the amount of free protein in the solution for each concentration of competitor using the equation of the single-site binding isotherm:
Pfree = Kd_tracer FP ― FP
Where Pfree is concentration of free protein, Kd tracer represents the previously determined binding affinity

[2] = system: HeLa cells expressing Centrin1-GFP; assay: Centriole phenotypic scoring (number of Centrin1-GFP foci); type: cell-based, human
From the text: Having established that SiR595-centrinone (2d) can successfully label overexpressed Plk4, we wanted to investigate whether it also marks endogenous Plk4. […] In contrast, partial Plk4 inhibition leads to increased levels of centriolar Plk4 due to partial interference with protein degradation mediated by autophosphorylation, overall resulting in centriole overamplification.[8] Therefore, both under-duplication and overamplification of centrioles can be used as a proxy for SiR595-centrinone binding to endogenous Plk4. […] We conclude that the failure of SiR595-centrinone (2d) to detect endogenous Plk4 is due to the low binding affinity of the probe in combination with low protein levels. […] In the second step, the Plk4-bound molecule is specifically reacted with an appropriate fluorogenic tetrazine dye.[27]−[33] This strategy was applied previously successfully to label various protein targets in live and fixed cells,[30],[32],[34]−[38] and we reasoned that a smaller and potentially more permeable Cen-TCO (3) derivative would likewise enable more efficient labeling of endogenous Plk4.
We conjugated trans-cyclooctene to the previously obtained compound (4) to obtain Cen-TCO (3) using the synthetic route outlined in Scheme S2. The resulting Cen-TCO (3) reacted with an appropriate tetrazine, such as SiR650-TetH (4a) (Figure S4A). The reaction was followed by LC-MS, and the data confirmed quantitative conversion of Cen-TCO (3) to the appropriate cycloaddition product Cen-Click-SiR650 (Figure S4A, D). […] To assess the phenotype caused by Cen-TCO (3), we incubated HeLa cells expressing Centrin1-GFP with different concentrations of Cen-TCO (3) for 24 h, followed by scoring of Centrin1-GFP foci numbers (Figure S5B). […] Despite the high unspecific background signal, a clear focus could be detected at centrioles (Figure 4B). […] The fwhm of the circular signal in this case was 368 ± 26 (N = 6) (Figure S7B), which corresponds to the size measured with overexpressed GFP-Plk4(K41M) (see Figure 3D), and approximately that of the torus region surrounding the centriole.[40] […]

binding affinity higher than that of SiR595-centrinone (2d) ([1]; ratio of Kd values) [fold]	SMILES	Kd [1] [µM]	binding affinity lower (KD higher) than that of unmodified centrinone [1] [fold]	effect on centriole numbers ([2]; 2 μM, 24 h)	concentration causing the centriole under-duplication phenotype ([2]; 24 h incubation, scoring of Centrin1-GFP foci) [nM]
–	COc1c(Nc2cc(C)[nH]n2)nc(Sc2ccc(S(=O)(=O)Cc3cccc([N+](=O)[O-])c3F)cc2F)nc1N1CCC(CC(=O)NCCNC(=O)c2ccc(C(=O)O)c(C3=C4C=CC(=N)C=C4[Si](C)(C)c4cc(N)ccc43)c2)CC1 [2d]	0.038 ± 0.005	42	did not affect centriole numbers	–
4	COc1c(Nc2cc(C)[nH]n2)nc(Sc2ccc(S(=O)(=O)Cc3cccc([N+](=O)[O-])c3F)cc2F)nc1N1CCC(CC(=O)NCCNC(=O)OC2CC/C=C/CCC2)CC1 (stereo not shown) [compound 3]	0.008 ± 0.001	~9	–	≥ 500
